According to patent US5614370A, “Assay to identify human C5a antagonists and agonists” (Merck & Co., Inc., priority 1994, dated 1997):
Each block holds one molecule with its values, some of them ahead of it. Non-standard residues stand in square brackets, D forms with d. Residues, ends and D or L forms follow the SMILES beside them. No end group written: not given here. NMeF = CN[C@@H](Cc1ccccc1)C(=O)O; Cha = N[C@@H](CC1CCCCC1)C(=O)O; dCha = N[C@H](CC1CCCCC1)C(=O)O

What was measured:
[1] = target: T1, C5a receptor (Homo sapiens, UniProt P21730); assay: Competition binding against 125I-labeled intact C5a on human neutrophil (PMN) membranes
T1 construct: followed by a 20 μL aliquot of neutrophil membrane; endogenous in cells
T1 sequence (P21730 1-350): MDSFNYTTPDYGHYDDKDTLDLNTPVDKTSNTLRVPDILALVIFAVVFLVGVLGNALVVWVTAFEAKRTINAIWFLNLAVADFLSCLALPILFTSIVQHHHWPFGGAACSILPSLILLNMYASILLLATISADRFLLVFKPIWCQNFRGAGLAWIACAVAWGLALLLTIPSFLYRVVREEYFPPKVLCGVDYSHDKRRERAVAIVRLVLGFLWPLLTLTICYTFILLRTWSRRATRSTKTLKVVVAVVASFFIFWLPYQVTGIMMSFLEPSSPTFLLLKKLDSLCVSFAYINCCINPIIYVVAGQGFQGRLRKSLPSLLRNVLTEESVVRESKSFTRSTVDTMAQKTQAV
Text: The affinity of these peptides is shown, for example, by radiolabeling intact C5a, and using the unlabeled peptide to compete the labeled C5a from C5a receptor binding sites on cellular membranes. Preparations of polymorphonuclear leukocytes (PMN's) are known to express the C5a receptor, (inhibition of the chemotactic response to C5a of this type of cell is one desirable utility for compounds identified by the instant assay). One method for preparing these membranes is described by Rollins, T. E. et al., [J. Biol. Chem. 264:520-526 (1988); see also U.S. Pat. No. 5,177,190, herein incorporated by reference as a method for isolating and purifying C5a receptor]. Briefly, this involves isolating PMN's in large quantity, disrupting these cells and obtaining the membrane fraction by centrifugation. Protein assay of the membrane preparation allows for standardization of the amount of protein added in any set of membrane binding experiments.
(§1) In FIG. 1, unlabeled C013 is used to compete with ^125 I-labeled C5a. […] In FIG. 2, the C013 is ^125 I labeled. Unlabeled C5a and unlabeled C013 are each used to compete the labeled C013 from C5a binding sites on the membranes. […] In FIG. 3a, ^125 I-C5a is competed from its binding site by unlabeled C064 and unlabeled, natural C5a (as opposed to recombinant C5a, which, however, may also obviously may be used for these purposes). […] In FIG. 3b, the inverse experiment is shown, wherein ^125 I-C064 is displaced by unlabeled C064 and unlabeled nC5a.
Hexapeptides within this class differing only at position X have similar affinities for the C5a receptor. As measured in competition binding experiments against ^125 I-C5a on human neutrophil membranes their IC50 's varied by only a factor of 3, from 25 to 80 nM (Table II):
^2 Binding experiments were carried out with human neutrophil
Binding is initiated by an addition of 20 μL of PMN membrane (typically 0.5 μg of protein) to each tube. After incubation for 90 min. at room temperature 2 ml of 0.05 M HEPES, pH 7.2, containing 0.5% BSA are added to the tube, the contents vortexed and filtered over a Whatman GF/C filter which has been soaked in 0.3% polyethylenimine. An additional 2 ml of buffer are added to the tube and used to wash the filter. All of the test samples are dissolved in DMSO, another water miscible organic solvent, or in an aqueous solvent. Non-specific background was determined by inclusion of a 100-fold excess of unlabeled C5a.
The percent inhibition is calculated according to the following formula: [formula]
Iodination of C5a was carded out with the use of chloramine T. (Rollins, T.E., and Springer, M.S. (1985) J. Biol. Chem. 260, 7157-7160). […] Concentrations of C5a were determined by amino acid analysis and by RIA (Amersham Corp.). Membranes were prepared from human PMN as described by Rollins, T.E., Sciliano, S and Springer, M.S., J. Biol Chem 264 520-526 (1988).

[2] = target: T1, C5a receptor; assay: biochemical; format: binding; conditions: for IC50: read-out: IC50 exhibited by the unlabeled ligand
Experimental: Initially, we attempted to conduct binding studies with ^125 I radiolabeled C009: ^125 I-Tyr Phe Lys Ala Cha Cha Leu dPhe Arg, SEQ.ID:1:, wherein Cha is cyclohexylalanine, and dPhe is the D isomer of phenylalanine. This compound is a C5a agonist displaying a Ki for C5a of 8 nM. The presence of the tyrosine allowed us to radioiodinate the peptide and establish a binding assay in which both C5a (IC50=0.1 nM) and unlabeled C009 (IC50 =10 nM) inhibit the binding of ^125 I-C009 with concentration dependencies similar to those obtained from competition experiments against ^125 I-C5a.
as §1
Peptide (5 nMoles) are added to 40μL of 0.1 M sodium phosphate, pH 7.6, in a tube, followed by 2 mCi of ^125 I in 20 μL. 10 μL of a freshly made 0.5 mg/mL solution of chloramine T is then added. After 30 seconds of incubation, 10 μL of a freshly prepared 2 mg/mL solution of Na2 S2 O3 is added, the tube is vortexed, and the sample loaded onto a Vydac C4 reverse phase column. The column is developed with a TFA/acetonitrile gradient and the iodinated peptide is isolated. The material is stored at 4° C. in the elution buffer.
To 205 μL binding buffer (50 mM HEPES, pH 7.2, containing 5 mM MgCl2, 1mM CaCl2, 0.5% BSA) in a polypropylene tube is added 30,000CPM of the ^125 I peptide in 20 μL, and 5 μL of a known dilution of the test compound or diluent, followed by a 20 μL aliquot of neutrophil membrane [equivalent to 500,000 neutrophils; Rollins, T.E. et al., J. Biol Chem. 260:7157 (1985); see also U.S. Pat. No. 5,177,190, herein incorporated by reference].
The assay mixture is incubated for 2 hours at 29° C. Binding buffer (2 mL) is then added, the tube is vortexed, and the contents filtered over a Wattmann GF/C filter soaked in 0.33% polyethylenimine. An additional aliquot of binding buffer (2 mL) is added to the tube to rinse the tube, and is then used to wash the filter. The filters are removed from the apparatus and counted. Non-specific backgrounds are determined by performing assays in the presence of either 10 nM C5a, or 1 μM unlabeled peptide. Compounds which inhibit the binding of the labeled peptide are considered to be potential active compounds.

[3] = test system: human neutrophils; assay: Degranulation, myeloperoxidase (MPO) release from human neutrophils (agonism); format: cell-based
Experimental: (§2) FIG. 5A and 5B. Degranulation and Ca^2+ responses to the hexapeptides. […] The ED50 's for the degranulation are: C5a, 0.5 nM; C028, 0.2 μM; C026, 1 μM. C5a, maximally, released 57% of the total cellular content of MPO. The ability of these molecules to elicite a Ca^2+ -flux is shown in B. The concentrations used for C028 (10 μM), C026 (10 μM), C061 (100 μM) are those which produce a maximal flux. A saturating concentration was also used for C5a (1 nM).
(§3) This assay was performed on human neutrophils as previously reported and it is a measure of C5a or peptide induced exocytosis (Rollins, T. E. and Springer, M. S. (1985) J. Biol. Chem. 260, 7157-7160).
The functional properties of two of the peptides, C026, and C028, were originally described by Mollison et. al (Mollison, K. W., Krause, R. A., Fey, T. A., Miller, L., Wiedeman, P. e., Kawai, M., Lane, B., Luly, J. R. and Carter, G. W. (1992) FASEB J. 6, A2058). […] We have reinvestigated the degranulating activities of these peptides as measured by the release of myeloperoxidase (MPO) from human neutrophils. […] The EC50 /IC50 (degranulation/binding) for C028 is 8, the same as that measured for C5a (Table II, FIG. 5A). […] However, the difference in activity between C026 and C028 is significant and reproducible. Since the structural difference between the two is the substitution of an aromatic for an aliphatic residue (Phe for Cha) we chose to make additional changes at position 5 which further increased aromaticity. […] To further examine whether the differences in activity between the peptides reflects the increased aromaticity we synthesized a molecule with Leu, an aliphatic amino acid, at position 5 (C068, Table II).

[4] = test system: human neutrophils; assay: Ligand induced Ca2+ flux (Indo-1 fluorescence); format: cell-based; conditions: maximal effects, peptide 10-100 μM vs 1 nM C5a, FIG. 5B
Experimental: as §2
(§4) Ligand induced Ca^2+ fluxes were measured by following the change in Indo-1 induced fluorescence on a FACS analyzer as previously described (Van Riper, G., Siciliano, S. J., Fischer, P. A., Meurer, R., Springer, M. S. and Rosen, H. (1993) J. Exp. Med. 177, 851-856.).
FIG. 5B compares the maximal effects of each peptide (10-100 μM) with the response induced by C5a (1 nM).

[5] = target: T1, C5a receptor; assay: Agonist activity over all C5a induced responses (chemotaxis, MPO release, calcium flux, GTPase activity, GTPγ-S binding); format: cell-based; conditions: C089 tested up to and including 100 μM
Experimental: The EC50 measures the concentration of compound at which a 50% maximal stimulation of a given biological response induced by C5a is achieved (chemotaxis, MPO release, calcium flux, GTPase activity or GTPγ-S binding), and the IC50 is the concentration at which 50% maximal inhibition of C5a binding is achieved.
as §3, §4
This assay is a modification of the procedure described by Sims et. al. (Sims, T. J., Geissler, F. T. and Page, R. C. (1985) J. lmmunol. Meth. 78, 279-291 ). Chemotaxis was assayed in a 48 well Neuro Probe chamber (Neuro Probe, Bethesda, MD) using ^51 Cr-labelled cells. […] After preforming a gradient for 30 minutes at 37° C., 2×10^5 labelled cells were added to the upper chamber and allowed to migrate at 37° C. for one hour. The upper two polycarbonate filters were then discarded and the formed wells cut from the nitrocellulose membrane. The radioactivity present in these filters is a measure of the number of cells that migrated through both polycarbonate filters.
The method of Kupper et al. (Kupper, R. W., Dewald, B., Jakobs, K. H., Baggiolini, M. and Gierschik, P. (1992) Biochem. J. 282, 429-434) was adapted for use in microtiter plates. Neutrophil membranes were suspended in 50 mM triethanolamine-HCl, 5 mM MES, pH 7.3, containing 1 mM EDTA, 5 mM MgCl2, 143 mM NaCl, 0.16 % BSA, 1 mM ouabain, 1 mM AMP-PNP, 0.5 mM ATP, 2.5 U/mL creatine phosphokinase,. 10 mM creatine phosphate, 0.1 mM PMSF and 10 ng/mL each of leupeptin, aprotinin and chymostatin. 50 μL of membranes containing 1-5 μg protein were added to 50 μL of the same buffer containing the test agent and 0.25 μM [γ-^32 P]-GTP (2,000 cpm/pmol) in the wells of a U-shaped microtiter plate. After incubation for 15-30 rain at 29° C., 100 μL of a 10% (w/v) charcoal suspension in 100 mM H3 PO4 was added and plates were centrifuged at 2000 rpm for 5 min. 100 μL of the supernatant was transferred to an Optiplate microtiter plate and 100 μL of Microscint-40 scintillation cocktail was added. Plates were counted in a Packard TopCount microtiter plate counter.

[6] = labeled ligand 125I-C5a, read-out: IC50 exhibited by the unlabeled ligand

Molecule: CC(C)C[C@H](NC(=O)CNC(=O)[C@H](CC1CCCCC1)NC(=O)[C@H](C)NC(=O)[C@H](CCCCN)NC(=O)[C@H](Cc1ccccc1)NC(=O)[C@@H](N)Cc1ccc(O)cc1)C(=O)N[C@H](Cc1ccccc1)C(=O)N[C@@H](CCCNC(=N)N)C(=O)O [C013, Tyr Phe Lys Ala Cha Gly Leu dPhe Arg] (H-YFKA[Cha]GL[dF]R-OH)
IC50 [1, 6]: 14 nM
binding affinity relative to 125I-C009 [2]: about 30 fold
IC50 ([2]; labeled ligand 125I-C013): 1 nM

IC50 ([1]; Table II, human neutrophil membranes, competition against 125I-C5a, read-out: Binding IC50): 60 nM
Molecule: CN[C@@H](Cc1ccccc1)C(=O)N[C@@H](CCCCN)C(=O)N1CCC[C@H]1C(=O)N[C@H](CC1CCCCC1)C(=O)N[C@@H](CC(C)C)C(=O)N[C@H](CCCNC(=N)N)C(=O)O [C068] (H-[NMeF]KP[dCha]L[dR]-OH)
degranulating activity in words ([3]; FIG. 5A): full agonist, as measured both by maximal release and ED50 /IC50 ratio
Ca2+ response in words [4]: full agonist in this assay
agonist activity in words, all responses [5]: almost complete agonists of all of these responses

effect on binding of C5a COOH-terminal peptides in words ([2]; 125I-C009 for fMLP and IL-8, COOH-terminal peptides for L-584,020): neither
Molecule: CSCC[C@H](NC=O)C(=O)N[C@@H](CC(C)C)C(=O)N[C@@H](Cc1ccccc1)C(=O)O [fMLP, N-formyl-methionyl-leucyl-phenylalanine, reference compound]

Molecule: IL-8: chemokine IL-8
release of total cellular MPO ([3]; 0.4 nM C5a or 8 nM IL-8, cells without C089): 19%

IC50 [1, 6]: 8 nM
non-specific binding of the labeled peptide [2]: low non-specific binding
IC50 ([2]; labeled ligand 125I-C064): 1.5 nM
Molecule: Tyr Phe Lys Pro dCha Cha dArg (YFKP[dCha][Cha][dR]) [C064, name also used for the 125I-Tyr peptide]

non-specific binding of the labeled peptide [2]: high non-specific binding
Molecule: ^125 I-Tyr Phe Lys Ala Cha Cha Leu dPhe Arg [125I-C009]

B1: 125I-C5a: C5a iodinated with chloramine T (100-200 mCi/mg) (protein, UniProt P01031 678-751, looked up)
C5a anaphylatoxin: TLQKKIEEIAAKYKHSVVKKCCYDGACVNNDETCEQRAARISLGPRCIKAFTECCVVASQLRANISHKDMQLGR
modifications: C5a anaphylatoxin 125I label
affinity of radioiodinated C5a in words ([1]; 100-200 mCi/mg): same affinity for the receptor as did the nonderivatized protein
